# Reference: patent US7517874B2 (priority 2007, dated 2009)
# Like-named read-outs stand apart in the source and are kept apart here.
# Key:
# [1] = target: human CB1 receptor (hCB1) (Homo sapiens, UniProt P21554); assay: cell-based; format: cell-based
# How it was run: (§1)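 Agonism or inverse agonism was assessed as change in intracellular cAMP in CHO-K1 cells expressing human CB1 or rat CB2 (genomic DNA, pcDNA3.1).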
# rat CB2 receptor (rCB2) = target: T1, rat CB2 receptor (rCB2) (Rattus norvegicus, UniProt Q9QZN9); assay: cell-based; format: cell-based; settings: for +/− RCB2: agonist or inverse agonist at rCB2
# T1 sequence (Q9QZN9 1-360): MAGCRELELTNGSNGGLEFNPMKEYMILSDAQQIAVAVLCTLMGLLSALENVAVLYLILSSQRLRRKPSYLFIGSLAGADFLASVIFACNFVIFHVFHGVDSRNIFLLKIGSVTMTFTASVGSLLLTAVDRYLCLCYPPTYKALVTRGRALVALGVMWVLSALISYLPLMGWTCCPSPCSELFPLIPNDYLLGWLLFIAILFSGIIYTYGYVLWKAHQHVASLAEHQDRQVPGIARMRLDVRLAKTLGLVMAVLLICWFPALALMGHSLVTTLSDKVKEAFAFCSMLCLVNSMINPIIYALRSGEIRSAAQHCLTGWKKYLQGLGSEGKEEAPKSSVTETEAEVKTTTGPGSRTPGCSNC
# How it was run: as §1
# [2] = groups >100 nM-10 μM and >10 μM, cAMP, CHO-K1 hCB1, read-out: EC50 HCB1
# Chain of human CB1 receptor (hCB1) (P21554 whole entry): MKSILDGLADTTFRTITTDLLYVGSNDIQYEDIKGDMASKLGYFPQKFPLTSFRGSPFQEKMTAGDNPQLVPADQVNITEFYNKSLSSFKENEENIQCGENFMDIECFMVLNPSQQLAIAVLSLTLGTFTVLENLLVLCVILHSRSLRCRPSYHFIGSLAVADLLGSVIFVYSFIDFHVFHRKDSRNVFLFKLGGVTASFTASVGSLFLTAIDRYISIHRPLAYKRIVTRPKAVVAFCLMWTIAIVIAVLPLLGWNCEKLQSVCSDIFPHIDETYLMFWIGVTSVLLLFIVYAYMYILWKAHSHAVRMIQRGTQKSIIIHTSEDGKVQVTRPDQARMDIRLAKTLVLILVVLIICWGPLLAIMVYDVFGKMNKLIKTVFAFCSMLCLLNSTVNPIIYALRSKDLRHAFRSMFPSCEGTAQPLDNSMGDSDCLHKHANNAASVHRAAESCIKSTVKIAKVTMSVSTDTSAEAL
Compound,EC50 [1] [nM],+/− RCB2 (rat CB2 receptor (rCB2)),"EC50 [1, 2] [nM]","EC50 (rat CB2 receptor (rCB2); groups >100 nM-10 μM and >10 μM, cAMP, CHO-K1 rCB2, read-out: EC50 RCB2) [nM]",EC50 (rat CB2 receptor (rCB2)) [nM]
"CCN1CCn2c(-c3ccc(Cl)cc3)nc(C(=O)NCCC(C)C)c2C1 [Compound 158, 3-(4-chlorophenyl)-7-ethyl-N-isopentyl-5,6,7,8-tetrahydroimidazo[1,5-a]pyrazine-1-carboxamide]",> 10000,−,,,
"CC(C)CCNC(=O)c1nc(-c2ccc(Cl)cc2)n2c1CN(CCO)CC2 [Compound 159, 3-(4-chlorophenyl)-7-(2-hydroxyethyl)-N-isopentyl-5,6,7,8-tetrahydroimidazo[1,5-a]pyrazine-1-carboxamide]",,−,> 10000,,
"CC(C)CN1CCn2c(-c3ccc(Cl)cc3)nc(C(=O)N[C@H](CO)C(C)(C)C)c2C1 [Compound 160, (S)-3-(4-chlorophenyl)-N-(1-hydroxy-3,3-dimethylbutan-2-yl)-7-isobutyl-5,6,7,8-tetrahydroimidazo[1,5-a]pyrazine-1-carboxamide]",> 10000,−,,,
"CCN1CCn2c(-c3ccc(Cl)cc3)nc(C(=O)N[C@H](CO)C(C)(C)C)c2C1 [Compound 161, (S)-3-(4-chlorophenyl)-7-ethyl-N-(1-hydroxy-3,3-dimethylbutan-2-yl)-5,6,7,8-tetrahydroimidazo[1,5-a]pyrazine-1-carboxamide]",> 10000,−,,,
"CC(C)(C)[C@@H](CO)NC(=O)c1nc(-c2ccc(Cl)cc2)n2c1CN(CCO)CC2 [Compound 162, (S)-3-(4-chlorophenyl)-N-(1-hydroxy-3,3-dimethylbutan-2-yl)-7-(2-hydroxyethyl)-5,6,7,8-tetrahydroimidazo[1,5-a]pyrazine-1-carboxamide]",> 10000,−,,,
"CC(C)CN1CCn2c(-c3ccccc3)nc(C(=O)N[C@H](C)C3CCCCC3)c2C1 [Compound 163, (R)-N-(1-cyclohexylethyl)-7-isobutyl-3-phenyl-5,6,7,8-tetrahydroimidazo[1,5-a]pyrazine-1-carboxamide]",> 10000,−,,,
"CCN1CCn2c(-c3ccccc3)nc(C(=O)N[C@H](C)C3CCCCC3)c2C1 [Compound 164, (R)-N-(1-cyclohexylethyl)-7-ethyl-3-phenyl-5,6,7,8-tetrahydroimidazo[1,5-a]pyrazine-1-carboxamide]",> 10000,−,,,
"CC(C)CN1CCn2c(-c3ccccc3)nc(C(=O)NC3CCCCC3)c2C1 [Compound 165, N-cyclohexyl-7-isobutyl-3-phenyl-5,6,7,8-tetrahydroimidazo[1,5-a]pyrazine-1-carboxamide]",> 10000,−,,,
"O=C(NC1CCCCC1)c1nc(-c2ccccc2)n2c1CN(CCO)CC2 [Compound 166, N-cyclohexyl-7-(2-hydroxyethyl)-3-phenyl-5,6,7,8-tetrahydroimidazo[1,5-a]pyrazine-1-carboxamide]",,−,> 10000,,
"CC(C)CN1CCn2c(-c3ccccc3)nc(C(=O)NCC3CCOCC3)c2C1 [Compound 167, 7-isobutyl-3-phenyl-N-((tetrahydro-2H-pyran-4-yl)methyl)-5,6,7,8-tetrahydroimidazo[1,5-a]pyrazine-1-carboxamide]",> 10000,−,,,
"CCN1CCn2c(-c3ccccc3)nc(C(=O)NCC3CCOCC3)c2C1 [Compound 168, 7-ethyl-3-phenyl-N-((tetrahydro-2H-pyran-4-yl)methyl)-5,6,7,8-tetrahydroimidazo[1,5-a]pyrazine-1-carboxamide]",> 10000,−,,,
"O=C(NCC1CCOCC1)c1nc(-c2ccccc2)n2c1CN(CCO)CC2 [Compound 169, 7-(2-hydroxyethyl)-3-phenyl-N-((tetrahydro-2H-pyran-4-yl)methyl)-5,6,7,8-tetrahydroimidazo[1,5-a]pyrazine-1-carboxamide]",,−,> 10000,,
"CC(=O)N1CCn2c(-c3ccccc3)nc(C(=O)N[C@H](C)C3CCCCC3)c2C1 [Compound 170, (R)-7-acetyl-N-(1-cyclohexylethyl)-3-phenyl-5,6,7,8-tetrahydro-imidazo[1,5-a]pyrazine-1-carboxamide]",> 10000,−,,,
"CC(C)NC(=O)N1CCn2c(-c3ccccc3)nc(C(=O)NC3C4(C)CCC(C4)C3(C)C)c2C1 (stereo not shown) [Compound 171, N7-isopropyl-3-phenyl-N1-(1,3,3-trimethylbicyclo[2.2.1]heptan-2-yl)-5,6-dihydroimidazo[1,5-a]pyrazine-1,7(8H)-dicarboxamide]",> 10000,−,,,
"CC(=O)N1CCn2c(-c3ccccc3)nc(C(=O)N[C@@H](C)c3ccccc3)c2C1 [Compound 172, (S)-7-acetyl-3-phenyl-N-(1-phenylethyl)-5,6,7,8-tetrahydroimidazo[1,5-a]pyrazine-1-carboxamide]",> 10000,+,,,
"CC(=O)N1CCn2c(-c3ccccc3)nc(C(=O)Nc3ccccc3)c2C1 [Compound 173, 7-acetyl-N,3-diphenyl-5,6,7,8-tetrahydroimidazo[1,5-a]pyrazine-1-carboxamide]",,,> 10000,> 10000,
"CNC(=O)[C@@H](NC(=O)c1nc(-c2ccccc2)n2c1CN(C(C)=O)CC2)C(C)(C)C [Compound 174, (S)-7-acetyl-N-(3,3-dimethyl-1-(methylamino)-1-oxobutan-2-yl)-3-phenyl-5,6,7,8-tetrahydroimidazo[1,5-a]pyrazine-1-carboxamide]",> 10000,+,,,
"CC(=O)N1CCn2c(-c3ccccc3)nc(C(=O)NN3CCCCC3)c2C1 [Compound 175, 7-acetyl-3-phenyl-N-(piperidin-1-yl)-5,6,7,8-tetrahydroimidazo[1,5-a]pyrazine-1-carboxamide]",> 10000,,,,> 10000
"CC(=O)N1CCn2c(-c3ccccc3)nc(C(=O)NCC3CCOCC3)c2C1 [Compound 176, 7-acetyl-3-phenyl-N-((tetrahydro-2H-pyran-4-yl)methyl)-5,6,7,8-tetrahydroimidazo[1,5-a]pyrazine-1-carboxamide]",> 10000,,,,> 10000
"CC(=O)N1CCn2c(-c3ccccc3)nc(C(=O)NC3CCCCC3)c2C1 [Compound 177, 7-acetyl-N-cyclohexyl-3-phenyl-5,6,7,8-tetrahydroimidazo[1,5-a]pyrazine-1-carboxamide]",> 10000,−,,,
"COC(=O)N1CCn2c(-c3ccccc3)nc(C(=O)NC3C4(C)CCC(C4)C3(C)C)c2C1 (stereo not shown) [Compound 178, methyl 3-phenyl-1-(1,3,3-trimethylbicyclo[2.2.1]heptan-2-ylcarbamoyl)-5,6-dihydroimidazo[1,5-a]pyrazine-7(8H)-carboxylate]",> 10000,−,,,
"COC(=O)N1CCn2c(-c3ccccc3)nc(C(=O)N[C@@H](C)c3ccccc3)c2C1 [Compound 179, (S)-methyl 3-phenyl-1-(1-phenylethylcarbamoyl)-5,6-dihydroimidazo[1,5-a]pyrazine-7(8H)-carboxylate]",> 10000,−,,,
"CNC(=O)[C@@H](NC(=O)c1nc(-c2ccccc2)n2c1CN(C(=O)OC)CC2)C(C)(C)C [Compound 180, (S)-methyl 1-(3,3-dimethyl-1-(methylamino)-1-oxobutan-2-ylcarbamoyl)-3-phenyl-5,6-dihydroimidazo[1,5-a]pyrazine-7(8H)-carboxylate]",> 10000,−,,,
"COC(=O)N1CCn2c(-c3ccccc3)nc(C(=O)Nc3ccccc3)c2C1 [Compound 181, methyl 3-phenyl-1-(phenylcarbamoyl)-5,6-dihydroimidazo[1,5-a]pyrazine-7(8H)-carboxylate]",,−,> 10000,,
"COC(=O)N1CCn2c(-c3ccccc3)nc(C(=O)NN3CCCCC3)c2C1 [Compound 182, methyl 3-phenyl-1-(piperidin-1-ylcarbamoyl)-5,6-dihydroimidazo[1,5-a]pyrazine-7(8H)-carboxylate]",,−,> 10000,,
"COC(=O)N1CCn2c(-c3ccc(Cl)cc3)nc(C(=O)NCCC(C)C)c2C1 [Compound 183, methyl 3-(4-chlorophenyl)-1-(isopentylcarbamoyl)-5,6-dihydroimidazo[1,5-a]pyrazine-7(8H)-carboxylate]",> 10000,−,,,
"COC(=O)N1CCn2c(-c3ccc(Cl)cc3)nc(C(=O)N[C@H](CO)C(C)(C)C)c2C1 [Compound 184, (S)-methyl 3-(4-chlorophenyl)-1-(1-hydroxy-3,3-dimethylbutan-2-ylcarbamoyl)-5,6-dihydroimidazo[1,5-a]pyrazine-7(8H)-carboxylate]",> 10000,−,,,
"COC(=O)N1CCn2c(-c3ccccc3)nc(C(=O)N[C@H](C)C3CCCCC3)c2C1 [Compound 185, (R)-methyl 1-(1-cyclohexylethylcarbamoyl)-3-phenyl-5,6-dihydroimidazo[1,5-a]pyrazine-7(8H)-carboxylate]",> 10000,−,,,
"COC(=O)N1CCn2c(-c3ccccc3)nc(C(=O)NCC3CCOCC3)c2C1 [Compound 186, methyl 3-phenyl-1-((tetrahydro-2H-pyran-4-yl)methylcarbamoyl)-5,6-dihydroimidazo[1,5-a]pyrazine-7(8H)-carboxylate]",> 10000,−,,,
